Measurements published in ChEMBL document CHEMBL1135886, “Substituted diphenyl sulfides as selective serotonin transporter ligands: synthesis and in vitro evaluation” (J Med Chem, 2002).

Key:
[1] = biological target: Sodium-dependent dopamine transporter (Rattus norvegicus, UniProt P23977); experiment: Inhibition of [3H]-GBR-12,935 binding to dopamine transporter (DAT) of rat striatal membranes; assay type: cell membranes, Membrane
[2] = biological target: Norepinephrine transporter (Rattus norvegicus, UniProt Q9WTR4); experiment: Inhibition of [3H]nisoxetine binding to norepinephrine transporter (NET) of rat cortical homogenates
[3] = biological target: Sodium-dependent serotonin transporter (Rattus norvegicus, UniProt P31652); experiment: Inhibition of [3H]paroxetine binding to serotonin transporter (SERT) of rat cortical membrane
Chain of Sodium-dependent serotonin transporter (P31652 whole entry): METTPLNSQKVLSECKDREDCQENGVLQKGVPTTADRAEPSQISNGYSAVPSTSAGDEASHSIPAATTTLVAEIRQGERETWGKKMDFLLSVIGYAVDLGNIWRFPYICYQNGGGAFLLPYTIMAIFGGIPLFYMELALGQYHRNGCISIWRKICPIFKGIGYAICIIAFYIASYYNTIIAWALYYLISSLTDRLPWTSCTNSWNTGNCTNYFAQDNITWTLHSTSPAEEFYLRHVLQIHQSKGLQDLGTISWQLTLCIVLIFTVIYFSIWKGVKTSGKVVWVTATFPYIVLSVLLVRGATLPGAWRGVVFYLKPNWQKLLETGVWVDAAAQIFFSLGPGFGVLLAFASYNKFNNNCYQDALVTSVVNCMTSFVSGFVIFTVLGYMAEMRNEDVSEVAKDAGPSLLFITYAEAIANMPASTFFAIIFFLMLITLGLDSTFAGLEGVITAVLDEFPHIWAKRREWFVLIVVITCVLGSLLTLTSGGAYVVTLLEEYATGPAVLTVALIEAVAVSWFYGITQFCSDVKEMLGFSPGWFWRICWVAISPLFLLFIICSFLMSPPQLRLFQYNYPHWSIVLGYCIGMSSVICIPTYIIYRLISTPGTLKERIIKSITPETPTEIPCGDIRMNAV

Chain of Norepinephrine transporter (Q9WTR4 whole entry): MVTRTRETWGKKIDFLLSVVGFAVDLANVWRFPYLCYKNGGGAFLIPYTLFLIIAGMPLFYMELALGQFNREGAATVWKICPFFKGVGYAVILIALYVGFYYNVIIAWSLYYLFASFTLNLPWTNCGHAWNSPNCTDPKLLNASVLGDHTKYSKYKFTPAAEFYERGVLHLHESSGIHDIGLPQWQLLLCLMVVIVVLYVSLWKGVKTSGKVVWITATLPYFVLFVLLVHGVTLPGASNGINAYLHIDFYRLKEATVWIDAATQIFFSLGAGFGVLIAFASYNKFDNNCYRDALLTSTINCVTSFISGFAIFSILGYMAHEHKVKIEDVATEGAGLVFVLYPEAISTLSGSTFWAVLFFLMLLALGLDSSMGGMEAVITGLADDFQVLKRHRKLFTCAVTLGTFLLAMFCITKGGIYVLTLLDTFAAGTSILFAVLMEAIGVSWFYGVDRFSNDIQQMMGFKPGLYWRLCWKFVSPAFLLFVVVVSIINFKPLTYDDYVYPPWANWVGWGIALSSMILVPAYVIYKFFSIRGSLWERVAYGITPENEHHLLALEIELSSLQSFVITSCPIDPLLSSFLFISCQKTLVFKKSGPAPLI
Chain of Sodium-dependent dopamine transporter (P23977 whole entry): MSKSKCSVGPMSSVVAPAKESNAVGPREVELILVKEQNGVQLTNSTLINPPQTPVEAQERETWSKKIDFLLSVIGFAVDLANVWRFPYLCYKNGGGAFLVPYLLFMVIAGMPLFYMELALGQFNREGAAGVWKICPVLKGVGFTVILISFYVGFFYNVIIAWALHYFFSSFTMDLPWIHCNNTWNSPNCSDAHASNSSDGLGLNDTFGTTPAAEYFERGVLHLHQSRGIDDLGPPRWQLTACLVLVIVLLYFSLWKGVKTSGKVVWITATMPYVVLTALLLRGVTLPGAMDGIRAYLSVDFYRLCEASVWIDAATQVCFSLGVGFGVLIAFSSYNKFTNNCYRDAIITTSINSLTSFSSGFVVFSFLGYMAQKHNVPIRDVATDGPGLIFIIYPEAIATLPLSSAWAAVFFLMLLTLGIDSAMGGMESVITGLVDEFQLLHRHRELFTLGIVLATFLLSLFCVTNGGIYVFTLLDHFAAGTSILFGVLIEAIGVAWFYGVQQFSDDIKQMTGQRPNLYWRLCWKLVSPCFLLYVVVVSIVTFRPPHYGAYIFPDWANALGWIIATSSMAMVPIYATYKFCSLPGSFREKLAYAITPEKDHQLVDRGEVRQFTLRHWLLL

## CN(C)Cc1ccccc1Sc1ccc(I)cc1N
[1]
  Ki: > 1000 nM
[2]
  Ki: 683 nM

## CN(C)Cc1ccccc1Sc1ccc(Br)cc1N
[1]
  Ki: 171 nM
[3]
  Ki: 2.23 nM
[2]
  Ki: 107 nM

## CN(C)Cc1ccccc1Sc1ccc(/C=C/I)cc1N
[1]
  Ki: > 1000 nM
[3]
  Ki: 53.3 nM
[2]
  Ki: 80.2 nM

## CN(C)Cc1ccccc1Sc1ccc(F)cc1CO
[1]
  Ki: 339 nM
[3]
  Ki: 7.96 nM
[2]
  Ki: 28.4 nM

## COCc1cc(Br)ccc1Sc1ccccc1CN(C)C
[1]
  Ki: > 1000 nM
[3]
  Ki: 2.75 nM
[2]
  Ki: 326 nM

## CNCc1ccccc1Sc1ccc(I)cc1CO
[1]
  Ki: 760 nM
[3]
  Ki: 0.98 nM
[2]
  Ki: 12.8 nM

## CNCc1ccccc1Sc1ccc(I)cc1N
[1]
  Ki: 818 nM
[3]
  Ki: 1.25 nM
[2]
  Ki: 714 nM

## Cc1ccc(Sc2ccccc2CN(C)C)c(N)c1
[1]
  Ki: > 1000 nM
[3]
  Ki: 1.65 nM
[2]
  Ki: 325 nM

## CN(C)C(=O)c1ccccc1Sc1ccc(Br)cc1C=O
[1]
  Ki: > 1000 nM
[3]
  Ki: > 1000 nM
[2]
  Ki: > 1000 nM

## COCc1cc(I)ccc1Sc1ccccc1CN(C)C
[1]
  Ki: 172 nM
[3]
  Ki: 2.5 nM
[2]
  Ki: 212 nM

## CNCc1ccccc1Sc1ccc(Br)cc1N
[1]
  Ki: 171 nM
[3]
  Ki: 1.49 nM
[2]
  Ki: 107 nM

## CN(C)C(=O)c1ccccc1Sc1ccc(F)cc1C=O
[1]
  Ki: > 1000 nM
[3]
  Ki: 695 nM
[2]
  Ki: > 1000 nM

## CN(CCF)Cc1ccccc1Sc1ccc(I)cc1N
[1]
  Ki: > 1000 nM
[3]
  Ki: 19.3 nM
[2]
  Ki: > 1000 nM

## CN(C)Cc1ccccc1Sc1ccc(Br)cc1CO
[1]
  Ki: 950 nM
[3]
  Ki: 1.92 nM
[2]
  Ki: 5.8 nM
